According to ChEMBL document CHEMBL1201862, “PubChem BioAssay data set” (2004):
The source made the active and inactive calls.

What was measured:
HeLa = experiment: ATP-based viability loss in HeLa cells – cell-based, CellTiter-Glo luminescence, cherry-pick samples, cytotoxicity control for MITF activator project, dose response (AID 540259); type: functional; settings: Homo sapiens
[1] = target: T1, Carboxy-terminal domain RNA polymerase II polypeptide A small phosphatase 1 (Homo sapiens, UniProt Q9GZU7); experiment: CTDSP1 inhibitors, concentration-response, biochemical, absorbance readout, ultra-high-throughput screen actives (AID 540297); type: functional
T1 sequence (Q9GZU7 whole entry): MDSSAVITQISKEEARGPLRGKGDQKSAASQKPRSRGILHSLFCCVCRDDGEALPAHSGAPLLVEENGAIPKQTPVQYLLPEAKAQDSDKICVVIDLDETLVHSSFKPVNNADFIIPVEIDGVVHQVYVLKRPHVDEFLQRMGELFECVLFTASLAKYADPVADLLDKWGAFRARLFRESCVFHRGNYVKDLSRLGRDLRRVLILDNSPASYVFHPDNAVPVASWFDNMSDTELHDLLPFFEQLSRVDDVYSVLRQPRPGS

[2] = target: Photoreceptor-specific nuclear receptor (Homo sapiens, UniProt Q9Y5X4); type: functional, cell-based;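 further: CHO-S cells with Gal4-NCOR and VP16-NR2E3 two-hybrid luciferase reporter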
[3] = target: T2, Corticotropin-releasing factor receptor 2/Corticotropin-releasing factor-binding protein (Homo sapiens, UniProt P24387+Q13324); experiment: Dose Response confirmation of uHTS hits for small molecule antagonists of the CRF-binding protein and CRF-R2 receptor complex.; type: functional; settings: read-out: IC50_Mean
T2 sequence (Q13324 whole entry): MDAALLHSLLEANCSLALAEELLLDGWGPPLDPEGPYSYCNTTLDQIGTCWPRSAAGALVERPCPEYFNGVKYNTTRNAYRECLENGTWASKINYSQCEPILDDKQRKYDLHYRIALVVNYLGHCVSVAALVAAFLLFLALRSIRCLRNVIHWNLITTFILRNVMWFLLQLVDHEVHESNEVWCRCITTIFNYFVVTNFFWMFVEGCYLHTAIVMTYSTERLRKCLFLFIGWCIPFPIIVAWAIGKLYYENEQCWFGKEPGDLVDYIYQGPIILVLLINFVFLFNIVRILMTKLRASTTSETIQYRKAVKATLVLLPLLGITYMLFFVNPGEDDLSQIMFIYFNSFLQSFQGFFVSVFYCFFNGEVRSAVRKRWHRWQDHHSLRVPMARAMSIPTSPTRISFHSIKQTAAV
T2 sequence (P24387 whole entry): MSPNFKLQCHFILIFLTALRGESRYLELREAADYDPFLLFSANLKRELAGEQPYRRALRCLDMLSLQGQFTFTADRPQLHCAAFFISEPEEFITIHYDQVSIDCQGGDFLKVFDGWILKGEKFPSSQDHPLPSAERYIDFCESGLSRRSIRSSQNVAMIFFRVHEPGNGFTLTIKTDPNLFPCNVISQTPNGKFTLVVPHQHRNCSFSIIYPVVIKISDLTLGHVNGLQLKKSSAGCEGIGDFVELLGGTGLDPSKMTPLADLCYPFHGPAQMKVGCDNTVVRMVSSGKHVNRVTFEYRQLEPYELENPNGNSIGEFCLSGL

[4] = blockers of CRF-binding protein–CRF-R2 complex – cell-based, uHTS hits, 384-well, dose response (AID 651639); type: functional, Homo sapiens; settings: read-out: IC50_Mean
[5] = target: T2, Corticotropin-releasing factor receptor 2/Corticotropin-releasing factor-binding protein; experiment: activators of CRF receptor 2 with binding protein – uHTS hits, confirmation (AID 602473); type: functional; settings: read-out: EC50_Mean
INS1 = experiment: INS-1E survival protection against cytokine death – cell-based, luminescence, retest, dose response (AID 449756); type: functional; settings: Rattus norvegicus;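 further: cell death triggered by IL-1 beta plus TNF-alpha plus IFN-gamma mixture; protective hits raise ATP signal compared with cytokine alone wells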
Escherichia coli [6] = experiment: microbe, parasite or virus in culture
Escherichia coli [7] = experiment: microbe, parasite or virus in culture; remark: listed apart in the source
[8] = target: Heat shock protein HSP 90-alpha (Homo sapiens, UniProt P07900); type: functional, organism-based
Nonstructural protein 1 = Nonstructural protein 1 (Influenza A virus, UniProt Q194T2); type: functional, Influenza A virus (A/California/07/2009(H1N1))
HEK293 = experiment: EBV LMP1 TES2 canonical NF-kB signalling blockers – cell-based, HEK293, luciferase, cherry-pick, dose response (AID 588343); type: functional; settings: Homo sapiens
[9] = target: T3, Latent membrane protein 1 (Human herpesvirus 4 (strain B95-8), UniProt P03230); experiment: LMP1 TES1 pathway selectivity over dsRED control – imaging, HEK293T, dual-color eGFP/dsRED, cherry-picks, selectivity assay for LMP1 NF-kB inhibitor project, dose response (AID 588398); type: functional, cell-based
T3 sequence (P03230 whole entry): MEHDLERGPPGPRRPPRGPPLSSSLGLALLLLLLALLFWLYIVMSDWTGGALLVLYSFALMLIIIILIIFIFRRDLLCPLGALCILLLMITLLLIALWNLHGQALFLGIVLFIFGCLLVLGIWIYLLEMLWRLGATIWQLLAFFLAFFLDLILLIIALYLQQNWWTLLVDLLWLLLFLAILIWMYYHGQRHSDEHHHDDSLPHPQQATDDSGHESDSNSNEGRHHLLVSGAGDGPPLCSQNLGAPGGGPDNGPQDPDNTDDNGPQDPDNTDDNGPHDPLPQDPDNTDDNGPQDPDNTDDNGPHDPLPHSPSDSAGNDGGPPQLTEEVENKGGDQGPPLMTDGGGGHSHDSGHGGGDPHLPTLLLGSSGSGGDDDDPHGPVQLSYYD

[10] = Fluorescence-based cell-based high throughput dose response assay for inhibitors of the interaction of nucleotide-binding oligomerization domain containing 2 (NOD2) and the receptor-interacting serine-threonine kinase 2 (RIPK2).; type: functional; settings: Homo sapiens
Fatty acid synthase [11] = target: T4, Fatty acid synthase (Homo sapiens, UniProt P49327); experiment: inhibition of human FAS-TE enzyme activity – biochemical, endpoint fluorescence intensity, uHTS hits, dose response (AID 624327); type: functional;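 further: fluorescence from hydrolysis of an O-methyl fluorescein acyl ester substrate by the enzyme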
Beta Lactamase = Beta Lactamase (Pseudomonas aeruginosa, UniProt Q932Y6); experiment: BLA reporter interference, concentration series – BLA reporter cells, FRET fluorescence, artefact control for NOD2-RIPK2 interaction inhibitor project, dose response (AID 651552); type: functional, cell-based
Fatty acid synthase [12] = target: T4, Fatty acid synthase; experiment: inhibition of human FAS-TE enzyme activity – biochemical, kinetic fluorescence intensity, dose response (AID 624326); type: functional;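 further: rate of fluorescence rise from hydrolysis of a fluorogenic O-methyl fluorescein ester substrate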

T4 sequence (P49327 whole entry): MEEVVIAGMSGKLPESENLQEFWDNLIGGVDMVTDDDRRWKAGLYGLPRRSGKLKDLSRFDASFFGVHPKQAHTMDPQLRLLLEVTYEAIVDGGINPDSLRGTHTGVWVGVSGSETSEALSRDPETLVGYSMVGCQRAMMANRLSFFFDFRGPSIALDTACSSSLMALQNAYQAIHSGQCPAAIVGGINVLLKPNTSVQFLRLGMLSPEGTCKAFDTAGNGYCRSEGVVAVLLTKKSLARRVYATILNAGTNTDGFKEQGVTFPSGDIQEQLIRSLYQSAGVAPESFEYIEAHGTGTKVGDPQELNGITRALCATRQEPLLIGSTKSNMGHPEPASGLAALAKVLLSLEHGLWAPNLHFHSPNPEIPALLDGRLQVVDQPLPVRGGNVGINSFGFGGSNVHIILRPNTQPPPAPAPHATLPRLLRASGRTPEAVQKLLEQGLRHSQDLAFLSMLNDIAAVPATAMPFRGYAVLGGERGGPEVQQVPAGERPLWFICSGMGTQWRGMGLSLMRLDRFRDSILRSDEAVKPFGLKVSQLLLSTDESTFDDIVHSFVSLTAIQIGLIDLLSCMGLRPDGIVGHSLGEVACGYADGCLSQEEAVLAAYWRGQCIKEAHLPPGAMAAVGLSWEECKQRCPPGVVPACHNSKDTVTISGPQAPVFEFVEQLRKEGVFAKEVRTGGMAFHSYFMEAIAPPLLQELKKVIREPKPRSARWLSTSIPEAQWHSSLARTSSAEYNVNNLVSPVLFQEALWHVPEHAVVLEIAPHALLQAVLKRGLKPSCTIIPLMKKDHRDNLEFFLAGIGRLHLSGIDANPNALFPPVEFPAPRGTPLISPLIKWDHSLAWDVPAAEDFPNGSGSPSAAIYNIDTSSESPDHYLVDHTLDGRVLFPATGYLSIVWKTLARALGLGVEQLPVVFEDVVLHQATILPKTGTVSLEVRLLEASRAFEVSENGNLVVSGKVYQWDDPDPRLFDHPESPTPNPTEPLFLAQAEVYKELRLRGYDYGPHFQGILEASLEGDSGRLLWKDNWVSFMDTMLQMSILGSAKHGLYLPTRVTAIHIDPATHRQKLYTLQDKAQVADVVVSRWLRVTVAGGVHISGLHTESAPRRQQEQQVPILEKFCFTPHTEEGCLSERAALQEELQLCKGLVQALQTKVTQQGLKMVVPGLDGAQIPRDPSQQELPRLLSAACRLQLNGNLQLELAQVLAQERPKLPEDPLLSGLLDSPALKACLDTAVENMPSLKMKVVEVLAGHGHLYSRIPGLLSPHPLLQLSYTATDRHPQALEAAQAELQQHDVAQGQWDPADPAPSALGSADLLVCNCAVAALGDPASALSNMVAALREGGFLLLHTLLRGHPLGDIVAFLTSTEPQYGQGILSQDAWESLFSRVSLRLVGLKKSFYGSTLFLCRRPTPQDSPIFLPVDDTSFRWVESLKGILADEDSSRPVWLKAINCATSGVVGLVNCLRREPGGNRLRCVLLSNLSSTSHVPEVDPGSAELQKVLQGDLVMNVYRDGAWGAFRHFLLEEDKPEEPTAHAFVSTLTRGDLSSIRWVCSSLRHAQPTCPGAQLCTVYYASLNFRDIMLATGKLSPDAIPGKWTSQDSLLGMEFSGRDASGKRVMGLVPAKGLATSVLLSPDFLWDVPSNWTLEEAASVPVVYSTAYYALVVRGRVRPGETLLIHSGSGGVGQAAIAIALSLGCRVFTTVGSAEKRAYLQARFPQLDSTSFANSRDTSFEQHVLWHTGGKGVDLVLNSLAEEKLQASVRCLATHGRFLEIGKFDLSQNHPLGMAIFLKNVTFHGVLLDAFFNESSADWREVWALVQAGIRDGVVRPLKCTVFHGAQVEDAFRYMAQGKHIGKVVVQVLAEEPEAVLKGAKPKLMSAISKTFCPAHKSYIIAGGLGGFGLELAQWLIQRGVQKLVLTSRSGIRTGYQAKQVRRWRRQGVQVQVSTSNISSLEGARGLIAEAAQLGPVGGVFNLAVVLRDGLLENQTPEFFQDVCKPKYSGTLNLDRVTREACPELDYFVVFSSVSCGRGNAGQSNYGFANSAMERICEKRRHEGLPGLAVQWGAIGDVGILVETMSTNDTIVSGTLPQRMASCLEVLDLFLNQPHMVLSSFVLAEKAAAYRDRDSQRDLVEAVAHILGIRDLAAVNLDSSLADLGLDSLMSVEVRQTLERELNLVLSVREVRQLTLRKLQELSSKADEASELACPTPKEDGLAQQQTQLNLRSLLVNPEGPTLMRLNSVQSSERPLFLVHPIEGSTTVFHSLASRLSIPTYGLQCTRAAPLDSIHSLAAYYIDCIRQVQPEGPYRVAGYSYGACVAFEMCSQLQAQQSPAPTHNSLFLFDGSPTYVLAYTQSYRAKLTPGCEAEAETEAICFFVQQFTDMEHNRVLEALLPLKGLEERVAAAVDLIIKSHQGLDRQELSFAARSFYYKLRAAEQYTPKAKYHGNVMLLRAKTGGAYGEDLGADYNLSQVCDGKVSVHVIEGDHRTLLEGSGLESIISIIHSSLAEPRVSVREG
Chain of Photoreceptor-specific nuclear receptor (Q9Y5X4 whole entry, the tested form may be a part): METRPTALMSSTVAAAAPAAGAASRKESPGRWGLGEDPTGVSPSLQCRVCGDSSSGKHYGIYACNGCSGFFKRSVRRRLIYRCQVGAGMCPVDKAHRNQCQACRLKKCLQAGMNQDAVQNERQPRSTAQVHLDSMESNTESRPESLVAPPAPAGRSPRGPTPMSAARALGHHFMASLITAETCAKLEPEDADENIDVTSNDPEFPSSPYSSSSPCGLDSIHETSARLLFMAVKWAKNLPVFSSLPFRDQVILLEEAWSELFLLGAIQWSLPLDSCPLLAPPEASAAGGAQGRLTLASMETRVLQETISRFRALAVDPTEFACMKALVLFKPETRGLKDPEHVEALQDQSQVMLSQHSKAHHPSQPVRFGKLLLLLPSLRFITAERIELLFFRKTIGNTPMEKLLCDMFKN
Chain of Nonstructural protein 1 (Q194T2 whole entry): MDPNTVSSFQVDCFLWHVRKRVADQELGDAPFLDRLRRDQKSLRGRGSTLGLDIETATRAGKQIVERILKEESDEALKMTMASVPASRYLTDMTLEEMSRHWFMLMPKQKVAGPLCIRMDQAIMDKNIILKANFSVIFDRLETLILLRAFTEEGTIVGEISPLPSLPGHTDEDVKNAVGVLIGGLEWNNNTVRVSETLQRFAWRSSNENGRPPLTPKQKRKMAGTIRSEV
Chain of Beta Lactamase (Q932Y6 whole entry): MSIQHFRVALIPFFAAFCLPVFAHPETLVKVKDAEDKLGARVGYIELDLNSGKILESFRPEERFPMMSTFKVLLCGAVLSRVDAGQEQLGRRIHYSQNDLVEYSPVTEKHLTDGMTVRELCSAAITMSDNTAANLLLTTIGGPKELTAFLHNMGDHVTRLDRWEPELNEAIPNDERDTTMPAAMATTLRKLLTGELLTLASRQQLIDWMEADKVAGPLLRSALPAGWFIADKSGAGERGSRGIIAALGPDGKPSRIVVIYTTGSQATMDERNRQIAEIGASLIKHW

In the case of `c1ccc2c(-c3csc(-c4ccncc4)n3)c[nH]c2c1`, the AC50 (HeLa) is reported as 40.5 µM (active).

In the case of `COc1ccccc1-n1cnc2c(c1=O)c1nc3ccccc3nc1n2-c1ccc(C)cc1`, the IC50 [1] is reported as 8.78 µM (active).

With `Nc1nc(N)nc(-c2cc(O)ccc2O)n1` the IC50 [2] was 5.7 µM (active).

With `CC(C)Cn1c(SCC(=O)N2CCc3ccccc3C2)nc2cc(Cl)ccc2c1=O` the IC50 [3] was 6.92 µM (active), the IC50 [4] was 6.45 µM (active) and the EC50 [5] was > 53 µM (inactive). For the same molecule, the AC50 (INS1) was 7.24 µM (active).

For `Fc1ccccc1CN=C(S)Nc1ccc(Cl)cc1`, the IC50 [4] was 14.8 µM (active).

In the case of `C[C@H](NC(=O)c1[nH]cnc1C(=O)NCC(=O)OC(C)(C)C)c1ccccc1`, the AC50 (Escherichia coli [6]) is reported as 46.2 µM (active) and the AC50 (Escherichia coli [7]) is reported as 52.9 µM (active).

With `c1ccc(-c2ccc3sccc3n2)cc1` the AC50 (HeLa) was 79 µM (active).

For `CC(=NNC(=S)N1CCCCCC1)c1ccccn1`, the AC50 [8] was 3.49 µM (active), the IC50 (Nonstructural protein 1) was 3 µM (active) and the AC50 (HEK293) was 0.545 µM (active). The AC50 [9] was 4.98 µM (active).

For `Cc1cc(C)c(S(=O)(=O)N2CCN(C(=O)c3ccccc3OCc3c(C)noc3C)CC2)c(C)c1`, the AC50 [9] was 91.5 µM (active).

In the case of `CCOC(=O)[C@]12Cc3cc(Cl)ccc3[C@H]1N(C1CCCCC1)C(=O)c1cc(OC)ccc12`, the IC50 [10] is reported as 11.7 µM (inactive), the IC50 (Fatty acid synthase [11]) is reported as 2.71 µM (active) and the IC50 (Beta Lactamase) is reported as 16.8 µM (inactive). The IC50 (Fatty acid synthase [12]) was 3.04 µM (active).
